This note sets out measurements from ChEMBL document CHEMBL1201862, “PubChem BioAssay data set” (2004).

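Test compounds were applied to cells in 96-well plates for 48 hours at 5 doses. GI50: concentration for 50% inhibition of growth.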 The source made the active and inactive calls. No stated cut-off is given here; in the data, active = GI50 up to about 1.1 µM and inactive = higher.

Among the test systems are UACC-257; SNB-75; SNB-19; NCI-H460; MDA-N; T47D; KM12; ACHN; SF-295; K562; U-251; SF-268; HCT-15; CCRF-CEM; A498; LOX IMVI; IGROV-1; SK-OV-3; Hs-578T; OVCAR-4.
Assay in all cases: NCI-60 cell line screen, 48 h

Regarding `O=C1CC(c2ccccc2Cl)C2(C(=O)NC(=S)NC2=O)C(c2ccccc2Cl)C1` (stereo not given), the GI50 in the experiment with UACC-257 was 13.6 µM (inactive); in the experiment with SNB-75, 69.8 µM (inactive); with SNB-19, 13.2 µM (inactive); with NCI-H460 it was 20 µM (inactive); in the experiment on MDA-N, 26.8 µM (inactive); in the experiment on T47D, 45.6 µM (inactive). Besides, the GI50 was 12.9 µM (inactive) with KM12; 24.8 µM (inactive) in the experiment on ACHN; 22.9 µM (inactive) with SF-295; 37.2 µM (inactive) in the experiment with K562; 15.3 µM (inactive) in the experiment with U-251; 19 µM (inactive) in the experiment with SF-268. For the same compound, the GI50 in the experiment on HCT-15 was 21.1 µM; in the experiment with CCRF-CEM it was 35.6 µM (inactive); in the experiment with A498, 21.4 µM (inactive); in the experiment with LOX IMVI, 16.9 µM (inactive); in the experiment with IGROV-1 it was 25.9 µM (inactive); with SK-OV-3 it was 43 µM (inactive). Besides, the GI50 is 0.465 µM (active) in the experiment on Hs-578T and 52 µM (inactive) in the experiment on OVCAR-4.

Turning to `O=[N+]([O-])c1ccc2c(c1)/C(=N/N=C1c3ccccc3Cc3ccccc31)c1cc([N+](=O)[O-])cc([N+](=O)[O-])c1-2`, the GI50 in the experiment on UACC-257 was 2.08 µM (inactive); in the experiment with SNB-75 it was 2.81 µM (inactive); in the experiment with SNB-19, 7.33 µM (inactive); in the experiment on NCI-H460 it was 3.14 µM (inactive); in the experiment on MDA-N it was 3.36 µM (inactive); in the experiment with T47D, 1.78 µM (inactive). The GI50 was 2.47 µM (inactive) with KM12; 2.99 µM (inactive) with ACHN; 1.93 µM (inactive) in the experiment on SF-295; 3.7 µM (inactive) in the experiment on K562; 3.24 µM (inactive) with U-251; 2.51 µM (inactive) with SF-268. Besides, the GI50 in the experiment with HCT-15 is 2.14 µM; with CCRF-CEM, 1.75 µM (inactive); with A498, 5.75 µM (inactive); with LOX IMVI it was 2.24 µM (inactive); in the experiment with IGROV-1, 1.55 µM (inactive); in the experiment with SK-OV-3 it was 14.2 µM (inactive). The GI50 was 2.86 µM (inactive) with Hs-578T and 1.73 µM (inactive) in the experiment on OVCAR-4.

Consider `COc1ccc(OC)c2sc(N3C(=O)/C(=C/Cc4ccco4)N=C3c3ccccc3)nc12`, for which the GI50 with UACC-257 was > 100 µM (inactive); in the experiment with SNB-75, 24.7 µM (inactive); in the experiment on SNB-19, 47.3 µM (inactive); in the experiment on NCI-H460, 50.1 µM (inactive); in the experiment on MDA-N, 19.6 µM (inactive); in the experiment on T47D it was 26 µM (inactive). The GI50 is 38.8 µM (inactive) with KM12; 26.7 µM (inactive) in the experiment on ACHN; 73.1 µM (inactive) in the experiment with SF-295; 29.9 µM (inactive) in the experiment on K562; 22.5 µM (inactive) with U-251; 34 µM (inactive) in the experiment with SF-268. Also, the GI50 with HCT-15 was 42.7 µM; with CCRF-CEM, 11.7 µM (inactive); in the experiment with A498, 66.2 µM (inactive); in the experiment on LOX IMVI, 25.1 µM (inactive); in the experiment with IGROV-1, 30.6 µM (inactive); in the experiment with SK-OV-3, 83.4 µM (inactive). In addition, the GI50 with Hs-578T was 42.2 µM (inactive); in the experiment with OVCAR-4, 32 µM (inactive).

Consider `COC(CN(C=O)[C@@H](c1ccc(Cl)cc1)c1cc2ccccc2o1)OC`, for which the GI50 is 14 µM (inactive) in the experiment on UACC-257; 22.9 µM (inactive) in the experiment with SNB-75; 19.4 µM (inactive) with SNB-19; 15.5 µM (inactive) in the experiment on NCI-H460; 17.1 µM (inactive) with MDA-N; 11.6 µM (inactive) with T47D. For the same compound, the GI50 was 11.1 µM (inactive) with KM12; 20.8 µM (inactive) with ACHN; 16.9 µM (inactive) with SF-295; 24.4 µM (inactive) in the experiment with K562; 17.3 µM (inactive) with U-251; 15.3 µM (inactive) with SF-268. The GI50 is 17 µM in the experiment with HCT-15; 21.1 µM (inactive) in the experiment with CCRF-CEM; 18.9 µM (inactive) in the experiment with A498; 16.3 µM (inactive) in the experiment on LOX IMVI; 14.8 µM (inactive) in the experiment with IGROV-1; 0.841 µM (active) with SK-OV-3. Besides, the GI50 is 14 µM (inactive) in the experiment with Hs-578T and 19.2 µM (inactive) with OVCAR-4.

In the case of `N/C(=N\Nc1ccc(S(N)(=O)=O)cc1)c1cnccn1`, the GI50 in the experiment with UACC-257, in the experiment with SNB-75, in the experiment with SNB-19, in the experiment on NCI-H460, in the experiment on MDA-N and in the experiment with T47D was > 100 µM (inactive) each time. The GI50 in the experiment on KM12, in the experiment with ACHN, in the experiment with SF-295, in the experiment with K562, in the experiment on U-251 and in the experiment on SF-268 was > 100 µM (inactive) throughout. In addition, the GI50 with HCT-15 is more than 100 µM; in the experiment on CCRF-CEM, > 100 µM (inactive); with A498, > 100 µM (inactive); in the experiment on LOX IMVI, > 100 µM (inactive); in the experiment with IGROV-1 it was > 100 µM (inactive); in the experiment on SK-OV-3, > 100 µM (inactive). Moreover, the GI50 in the experiment with Hs-578T and in the experiment on OVCAR-4 was > 100 µM (inactive) each time.

Regarding `Cc1csc2nc(-c3cccc([N+](=O)[O-])c3)c(/C=N/N=C(N)N)n12`, the GI50 was 1.78 µM (inactive) in the experiment on UACC-257; 1.75 µM (inactive) in the experiment on SNB-75; 1.9 µM (inactive) with SNB-19; 3.2 µM (inactive) with NCI-H460; 1.67 µM (inactive) in the experiment on MDA-N; 1.87 µM (inactive) with T47D. Also, the GI50 in the experiment on KM12 is 1.68 µM (inactive); with ACHN, 1.8 µM (inactive); with SF-295, 1.69 µM (inactive); with K562, 1.98 µM (inactive); in the experiment with U-251 it was 1.67 µM (inactive); with SF-268, 1.82 µM (inactive). Besides, the GI50 in the experiment with HCT-15 is 1.71 µM; in the experiment on CCRF-CEM, 1.92 µM (inactive); with A498, 0.933 µM (active); in the experiment on LOX IMVI it was 1.81 µM (inactive); in the experiment on IGROV-1 it was 1.81 µM (inactive); in the experiment with SK-OV-3 it was 1.82 µM (inactive). In addition, the figures for the GI50 in the experiment with Hs-578T and in the experiment on OVCAR-4 were 2.18 µM (inactive) and 1.78 µM (inactive), respectively.

As for `CCOC(=O)/C=C/CCO[Si](C)(C)C(C)(C)C`, the GI50 was > 100 µM (inactive) in the experiment on UACC-257; 82.8 µM (inactive) with SNB-75; > 100 µM (inactive) in the experiment with SNB-19; > 100 µM (inactive) with NCI-H460; > 100 µM (inactive) in the experiment with MDA-N; > 100 µM (inactive) with T47D. Moreover, the GI50 in the experiment with KM12, with ACHN, in the experiment on SF-295, in the experiment with K562, in the experiment on U-251 and in the experiment with SF-268 was > 100 µM (inactive) in each case. The GI50 was more than 100 µM in the experiment on HCT-15; > 100 µM (inactive) in the experiment on CCRF-CEM; > 100 µM (inactive) with A498; 50.5 µM (inactive) in the experiment with LOX IMVI; > 100 µM (inactive) in the experiment on IGROV-1; > 100 µM (inactive) in the experiment on SK-OV-3. The GI50 in the experiment with Hs-578T and in the experiment with OVCAR-4 was > 100 µM (inactive) in each case.

With `CCN(CC(O)COc1ccc2c(c1)[n+]([O-])nc(N)[n+]2[O-])C(C)=O` (stereo not given), the GI50 in the experiment on UACC-257 is > 100 µM (inactive); in the experiment with SNB-75, 38.9 µM (inactive); with SNB-19, > 100 µM (inactive); in the experiment with NCI-H460 it was > 100 µM (inactive); in the experiment on MDA-N, > 100 µM (inactive); with T47D, 20.2 µM (inactive). Moreover, the GI50 is > 100 µM (inactive) with KM12; > 100 µM (inactive) in the experiment on ACHN; > 100 µM (inactive) in the experiment with SF-295; 79.6 µM (inactive) in the experiment with K562; > 100 µM (inactive) in the experiment with U-251; 80.5 µM (inactive) in the experiment with SF-268. Moreover, the GI50 in the experiment with HCT-15 is more than 100 µM; in the experiment on CCRF-CEM, 72.4 µM (inactive); in the experiment on A498, 62.1 µM (inactive); with LOX IMVI, 76.6 µM (inactive); in the experiment on IGROV-1, > 100 µM (inactive); in the experiment with SK-OV-3 it was > 100 µM (inactive). In addition, the GI50 in the experiment with Hs-578T was 63 µM (inactive); in the experiment on OVCAR-4, 86.5 µM (inactive).

`O=C(O)CSCc1cccc2ccccc12`: the GI50 in the experiment with UACC-257 is 62.1 µM (inactive); with SNB-75 it was > 100 µM (inactive); in the experiment on SNB-19, > 100 µM (inactive); with NCI-H460 it was > 100 µM (inactive); in the experiment on MDA-N, > 100 µM (inactive); in the experiment with T47D it was > 100 µM (inactive). The GI50 in the experiment on KM12, with ACHN, in the experiment with SF-295, with K562, in the experiment on U-251 and in the experiment on SF-268 was > 100 µM (inactive) in each case. Further, the GI50 in the experiment with HCT-15 was more than 100 µM; in the experiment with CCRF-CEM, > 100 µM (inactive); in the experiment with A498, > 100 µM (inactive); with LOX IMVI, > 100 µM (inactive); in the experiment with IGROV-1, > 100 µM (inactive); in the experiment on SK-OV-3, > 100 µM (inactive). For the same compound, the GI50 in the experiment on Hs-578T and in the experiment on OVCAR-4 was > 100 µM (inactive) throughout.

As to `Oc1ccc(Cl)cc1-c1nc(S)nc(-c2ccccc2)c1Cl`, the GI50 with UACC-257 was > 100 µM (inactive); with SNB-75 it was 18.9 µM (inactive); in the experiment with SNB-19 it was 69.2 µM (inactive); with NCI-H460, > 100 µM (inactive); in the experiment on MDA-N it was > 100 µM (inactive); with T47D, > 100 µM (inactive). Moreover, the GI50 was > 100 µM (inactive) in the experiment on KM12; > 90.8 µM (inactive) in the experiment with ACHN; 28.6 µM (inactive) with SF-295; > 100 µM (inactive) with K562; 43.2 µM (inactive) with U-251; > 64.3 µM (inactive) in the experiment with SF-268. The GI50 is more than 100 µM in the experiment on HCT-15; > 100 µM (inactive) in the experiment with CCRF-CEM; 51.9 µM (inactive) in the experiment on A498; > 56.9 µM (inactive) in the experiment on LOX IMVI; 72.4 µM (inactive) with IGROV-1; > 96.4 µM (inactive) in the experiment on SK-OV-3. Moreover, the GI50 is 22.9 µM (inactive) with Hs-578T and > 100 µM (inactive) in the experiment with OVCAR-4.
